SMILES strings stand for the structures.

A short description of this data set: gradient 5% acetonitrile 3 min, to 50% in 2 min, to 85% in 15 min, held 3 min, 100 µL/min. The conditions noted are these: column: Zorbax Extend-C18 2.1 x 50 mm; eluents: water / acetonitrile, 0.1% formic acid. The procedure, abridged: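 Retention time was recorded from adduct peaks, which were picked computationally and each inspected manually. Pure standards ran in mixtures of ~100 molecules on HPLC coupled to a quadrupole time-of-flight mass spectrometer, in positive and negative ionization mode, through a Zorbax Extend-C18 column (2.1 × 50 mm, 1.8 μm) at 100 μL/min. Eluents were water and acetonitrile, each with 0.1% formic acid.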
`Cc1ccc(NC(=O)Nc2cnn(-c3ncncc3N3CCOCC3)c2)cc1Cl` showed an RP-LC retention time of 695 s. The figure for `O=C(c1cncc(Br)c1)N1CCC(Cc2nc(-c3ccc(Cl)cc3)no2)CC1` is 1050 s. The result for `COc1ccc(CN2CCC([C@@H]3CNC[C@H]3CO)CC2)c(OC)c1` reads 549 s. The result for `O=C(c1cc(-c2ccco2)on1)N1CCC2(CC1)OCCS2` reads 822 s; that for `COc1ccccc1CN1CC(F)(F)C[C@H]1COc1ccncc1`, 623 s.

`COc1cccc(-n2c(=O)c(C(=O)NCCc3ccccc3)c(O)c3cccnc32)c1` registered an RP-LC retention time of 1200 s. The result for `CC(C)CCNC(=O)NCCC1CCN(S(=O)(=O)c2ccc(F)cc2)CC1` reads 880 s; that for `Cc1c(Br)cc(C(=O)NC(C)C)c(C)c1C`, 838 s. The molecule `CCn1cc(CCN2CCN(S(=O)(=O)c3cccc(C#N)c3)CC2)c2cccnc21` gave an RP-LC retention time of 635 s. The figure for `CCCNC(=O)C1CCCN(c2ccc(SCC(=O)Nc3cccc(Br)c3)nn2)C1` (stereo unspecified) is 730 s; for `Cc1ccc(-n2ccc(=O)c(-c3nc(-c4cccc(Br)c4)no3)n2)cc1` it is 1030 s; for `CCOc1nc2ccccc2nc1N1CCCC(C(=O)N2CCN(c3ccccc3)CC2)C1` (stereo unspecified) it is 1280 s. Regarding `COCC(=O)NC1CCC12CCN(C(=O)C1CC1)CC2` (stereo unspecified), the RP-LC retention time was found to be 619 s.

Molecule `CCc1ccc(NC(=O)C2CCN(S(=O)(=O)c3c(C)[nH]c(C)c3C(=O)N3CCCC3)CC2)cc1` registered an RP-LC retention time of 729 s. The figure for `O=C(NCCc1c[nH]c2ccc(Cl)cc12)c1cc(-c2ccccn2)nc2ccccc12` is 959 s; for `CCCN1C(=O)c2c(C(=O)NCc3ccc(N(C)C)cc3)ncn2CC1(C)C(=O)NCCC(C)C` (stereo unspecified) it is 649 s. The figure for `Cc1nn(-c2cc(N3CCCC3)ncn2)c(C)c1CCC(=O)NCCc1ccco1` is 721 s.

For the molecule `Cc1[nH]c(C(=O)N2CCCC(C(=O)NCc3ccc4c(c3)OCO4)C2)c(C)c1C` (stereo unspecified), the RP-LC retention time is 804 s.

As to `COCCCNC(=O)c1ccc(Oc2nccnc2N2CCC(C)CC2)cc1`, the RP-LC retention time is 956 s. The figure for `Cc1noc(C)c1-c1ccc(S(=O)(=O)Nc2ccccc2F)cc1` is 881 s; for `O=C(Nc1ccc(F)cc1F)[C@@H]1OCC(=O)N(C2CC2)[C@H]1c1ccccc1` it is 785 s; for `Cc1c(C(=O)N2CCN(S(C)(=O)=O)CC2)nnn1-c1nc2c(s1)CCCC2` it is 798 s. The figure for `CCN(CC(=O)N1CCC(C(N)=O)CC1)S(=O)(=O)c1ccc(F)cc1` is 635 s; for `O=C(NCCCN1CCCCCC1)c1csc(-c2ccnc(N3CCOCC3)c2)n1` it is 576 s. The figure for `CNc1nc(Nc2cc(F)ccc2F)nc2ccccc12` is 675 s; for `CC(=O)N1CCc2ccccc2C1C(=O)NCc1ccc(Br)cc1` (stereo unspecified) it is 835 s. Turning to `Cc1noc(C)c1CCC(=O)N1CCCn2ccnc2C1C1CCCC1` (stereo unspecified), the RP-LC retention time amounted to 613 s.

Molecule `CCc1cccc(C)c1Nc1c(-c2ccc(OC)cc2)nc2cnccn12` had an RP-LC retention time of 873 s.

On to `Cc1c(C(=O)C(=O)Nc2ccc(C(N)=O)cc2)c2ccccc2n1C`, for which the RP-LC retention time came to 686 s.

`COCCN1C(=O)Cc2ccccc2C1C(=O)NCc1ccccc1Br` (stereo unspecified) returned an RP-LC retention time of 775 s.

Regarding `CCc1ccccc1NC(=O)C1CCCN(c2nc3c(s2)c(C)nn3-c2cccc(F)c2)C1` (stereo unspecified), the RP-LC retention time came to 1260 s.

The molecule `CCOC(=O)CNC(=O)C1(C)Cn2c(ccc2-c2ccco2)C(=O)N1Cc1ccccc1Cl` (stereo unspecified) yielded an RP-LC retention time of 876 s.

For the molecule `Cc1nn(C2CCS(=O)(=O)C2)c2nc(-c3ccc(F)cc3)cc(C(=O)N3CCCC3)c12` (stereo unspecified), the RP-LC retention time came to 779 s.

Consider `O=C(CN1c2ccc(F)cc2-c2ccccc2S1(=O)=O)NCc1ccc2c(c1)OCO2`, for which the RP-LC retention time is 913 s. Molecule `COc1ccc(OC)c(NS(=O)(=O)c2cc3c(s2)CCN(C(=O)C2CC2)C3)c1` registered an RP-LC retention time of 821 s. The figure for `Cc1nn2c(CNS(=O)(=O)c3cccc(F)c3)c(-c3ccccc3)nc2s1` is 852 s. The figure for `COc1cccc(C(=O)N2CCN=C2N2CCCC2)c1OC` is 614 s.

On to `COc1ccc(C)cc1S(=O)(=O)N1CCCC(c2nnc(COc3ccccc3)o2)C1` (stereo unspecified), for which the RP-LC retention time was 891 s.

Regarding `CCOC(=O)N1CCC(c2nnc(-c3ccco3)s2)CC1`, the RP-LC retention time is 728 s. The figure for `COCc1nc2cccnc2n1C1CCN(C(=O)NCCc2ccccc2)CC1` is 692 s.

Take `CCCc1cc(C2CCCN2C(=O)Nc2ccccc2C)no1` (stereo unspecified): the RP-LC retention time stood at 902 s. In the case of `O=C(NC1CC1)c1ccccc1OC1CN(C2CCC2)C1`, the RP-LC retention time amounted to 568 s. The figure for `COCCCNC(=O)c1nc2ccccn2c1-c1ccc(Cl)cc1` is 764 s; for `COCCNC(=O)CCc1cn(Cc2ccccc2C)c2ccccc12` it is 919 s; for `CC(C)c1ccc(NC(=O)c2cn3c(n2)CCCC3)cc1` it is 684 s. The figure for `COc1ccc(N2CC(NC(=O)C(=O)c3c(C)[nH]c4ccccc34)CC2=O)cc1` (stereo unspecified) is 707 s; for `CN(Cc1nc2ccccc2[nH]1)C(=O)c1ccco1` it is 537 s; for `COc1ccc(Cl)cc1NC(=O)N1CCC(C(=O)Nc2nccs2)CC1` it is 764 s.

As to `CCCCn1nnc(NCc2ccc(-c3cccc(Cl)c3)o2)n1`, the RP-LC retention time worked out at 1150 s.

Consider `CCS(=O)(=O)Nc1ccc(C2(C(=O)NC(C)c3ccccc3)CCCCC2)cc1` (stereo unspecified), for which the RP-LC retention time was determined as 976 s. The result for `CCN(CC)CCNC(=O)c1cc(S(=O)(=O)N2CCCCCC2)ccc1Cl` reads 656 s; that for `c1ccc(-c2nc3ccccc3nc2N2CCOCC2)cc1`, 995 s; that for `O=C(NC1CCc2nnc(C3CC3)n2CC1)c1cc(C2CC2)[nH]n1` (stereo unspecified), 581 s. The figure for `Cc1ccc(S(=O)(=O)N2CC3CN(C(=O)COCc4ccccc4)CC(C2)O3)cc1` is 849 s; for `Cc1ccccc1NC(=O)c1nnc(CSCC(=O)N2CCN(c3ccccn3)CC2)s1` it is 637 s; for `Cc1ccc(C(=O)N2[C@H]3CC[C@@H]2c2cnc(C)nc2C3)cn1` it is 562 s. The result for `CCCc1c(C(=O)O)nnn1-c1ccc(C)cc1F` reads 761 s; that for `CCn1cc(C)c(C(=O)O)c1CC(=O)NCCCN1CCN(C)CC1`, 562 s; that for `CC1CCN(c2nn(CC(=O)NCCc3ccc(Cl)cc3)c(=O)c3ccccc23)CC1`, 1190 s. `O=C(O)CCCC(=O)N1C[C@H]2C[C@@H](C1)c1cccc(=O)n1C2`: the RP-LC retention time came out at 564 s. The result for `CCOC(=O)c1ccc(NS(=O)(=O)c2cc3n(c2)CCCN(CC)C3=O)cc1` reads 759 s; that for `COCCCNC(=O)c1cc(-c2ccc(OC)c(OC)c2)nc2n[nH]c(-c3ccc(OC)cc3)c12`, 724 s.

With `CCOc1ccc(CCNC(=O)C2CCCN(c3nnc(C)c4c(C)n(-c5ccccc5)nc34)C2)cc1` (stereo unspecified), the RP-LC retention time is 759 s. For the molecule `CN1C(=O)C2CCCCN2c2ccc(C(=O)N3CCN(c4ccc(Cl)cc4)CC3)cc21` (stereo unspecified), the RP-LC retention time came to 1020 s. The result for `Cc1ccc(C)c(NS(=O)(=O)c2cc3n(c2)CCN(C(C)C)C3=O)c1` reads 794 s. The figure for `CCCCCCOc1ccccc1C(N)=O` is 1040 s. Molecule `O=C(C1CCOC1)N1CCC(c2nncn2Cc2ccccc2)CC1` (stereo unspecified) yielded an RP-LC retention time of 541 s.

The molecule `CCCNc1cc(N2CCC(CCC(=O)Nc3cc(C)ccc3C)CC2)ncn1` displayed an RP-LC retention time of 608 s. The result for `Cc1cc(C)cc(NC(=O)N(C)CC2CCOC2)c1` (stereo unspecified) reads 743 s. The result for `O=C(Nc1ccccc1F)C1CC(=O)N(c2ccc3c(c2)CCN3C(=O)C2CC2)C1` (stereo unspecified) reads 749 s; that for `O=C(C1CCCN(c2cnc3nccnc3c2)C1)N1CCN(c2ccccn2)CC1` (stereo unspecified), 568 s; that for `COc1ccccc1NC(=O)N1CCc2nc(-c3ccccc3)ncc2C1`, 922 s. The figure for `O=C([C@@H]1C[C@H](Oc2cccnc2)CN1C(=O)C1CCCC1)N1CCCC1` is 577 s.

In turn, `COC(=O)c1c(C)[nH]c(C(=O)N2CCC(CC(=O)NCCc3c[nH]c4ccc(Cl)cc34)CC2)c1C` returned an RP-LC retention time of 785 s. Molecule `O=C(NCc1ccc(F)cc1)c1cn(-c2ccc(NC(=O)C3CC3)cn2)cn1` returned an RP-LC retention time of 748 s.

For `Cc1ccc(-c2cc3c(=O)n(Cc4noc(CN5CCCCC5C)n4)ccn3n2)cc1` (stereo unspecified), the RP-LC retention time was found to be 674 s. The result for `CC1CC(=O)c2cnc(N3CCN(Cc4ccc5c(c4)OCO5)CC3)nc2C1` (stereo unspecified) reads 632 s; that for `O=c1ccc(-c2ccccc2F)nn1Cc1nc(-c2ccc3c(c2)OCO3)no1`, 944 s; that for `COCC(=O)Nc1ccc(-c2nc(-c3ccc(C)cc3C)co2)cc1`, 1110 s. The figure for `O=C(OCCN1CCOCC1)C1(c2ccccc2)CCCCC1` is 755 s; for `O=c1ccc(N2CCCN(S(=O)(=O)c3ccc(F)c(F)c3)CC2)nn1-c1ccccc1` it is 861 s.

The values above are taken from the METLIN SMRT retention time set (Domingo-Almenara et al. 2019).
